Patent US9982237B2, “Compositions and methods for reprograming non-pluripotent cells into pluripotent stem cells” (Hong Guan Ltd., priority 2013, dated 2018)

Legend:
Type in all cases: cell-based, mouse
[1] = tested on: pluripotency-related genes; assay: Gene expression during chemical reprogramming (real-time PCR, RNA-seq); conditions: for activation of endogenous expression of Sall4 and Sox2: withdrawal from VC6TF, after 12 days
MEFs = assay: CiPSC induction by small-molecule combinations, primary CiPSC colonies counted; conditions: for replacement of DZNep in CiPSC generation: in combination with VC6TF
Experimental: The initial cells (MEFs, MNFs, MAFs or ADSCs) were seeded at a density of 50,000 cells per well of a 6-well plate or 300,000 cells per 100 mm dish. On the next day (day 0), the original medium was replaced with chemical reprogramming medium containing the small-molecule combinations. The small-molecule combinations-containing medium was changed every 4 days. On day 12, these cells were washed in PBS and digested with 0.25% Trypsin-EDTA (Invitrogen) at 37° C. for 3-5 min. After neutralization, the cell clumps were dissociated into single cells by thorough pipetting. The cells were harvested (300,000-1,000,000 cells per well of a 6-well plate) and replated at a density of 300,000-500,000 cells per well of a 6-well plate in the chemical reprogramming medium containing the small-molecule combinations. DZNep was added to the cell cultures on day 16 or day 20. On day 28-36, the small-molecule combinations including DZNep were removed. Meanwhile, the chemical reprogramming medium was replaced with 2i-medium. After another 8-12 days, 2i-competent, ESC-like and GFP-positive colonies were counted as primary CiPSC colonies. For CiPSC induction from wild-type cells without OG reporter, 2i-competent and ESC-like colonies were counted as primary CiPSC colonies. These CiPSC colonies were picked up for expansion and characterization. Alternatively, CiPSCs could be induced without replating on day 12.

MEFs from OG mice [2] = assay: Screen for small molecules that facilitate late reprogramming (DOX-inducible Oct4 plus VC6T)
Experimental: To identify small molecules that facilitate late reprogramming, a doxycycline (DOX)-inducible Oct4 expression screening system was used (Li, et al., Cell Res. 21:196-204 (2011)).
MEFs from OG mice were plated as described above and infected with Fu-tet-hOct4 and FUdeltaGW-rtTA lentiviruses. The induction protocol was carried out as described above.
After infection, the culture medium was replaced with LIF-free ESC culture medium containing VC6T (VPA, CHIR99021, 616452, Tranylcypromine) plus DOX (1 μg/ml). Alternatively, MEFs harboring DOX-inducible Oct4 from Tet-On POU5F1 mouse strain B6; 129-Gt(ROSA)26Sor^tm1(rTA*M2)Jae COl1a1^tm2(tetO-Pou5f1)Jae/J were used in this screen (Li, et al., Cell Res., 21:196-204 (2011)). These two DOX-inducible systems were only used in this screen, but not in complete chemical reprogramming. Individual chemicals from small-molecule libraries were added to each well. Small molecules were added at different culture time points. 5-aza-C (5-Azacytidine) and DZNep were added from day 8. The medium and chemicals were changed every 4 days; DOX was added only for the first 4-8 days. Chemical treatments were continued for 16-24 days or until GFP-positive colonies appeared. Primary hits were selected for further confirmation and optimization. CiPSC colonies were counted on day 44. […]

cAMP level in MEF = assay: Intracellular cAMP quantification (Direct cAMP ELISA); conditions: FSK 10 μM, versus DMSO control
Experimental: (§1) cAMP was quantified using the Direct cAMP ELISA Kit (Enzo) according to the manufacturer's protocol. For SAM and SAH quantification, cultured cells (1,000,000 cells) were trypsinized and homogenized by ultrasonication in 200 μl PBS. Then 40 μl of 400 mg/ml TCA was added. Cell extracts were incubated on ice for 30 min. After centrifugation at 4° C. (13,000 rpm, 15 min), the supernatants were filtered through a 0.22 μm filter and analyzed by high-performance liquid chromatography (HPLC, Shimadzu) with HILIC columns (Waters).
The effect of inhibiting adenylate cyclase on the number of colonies generated by VC6TFZ was tested. […] The effect of replacing FSK with the cAMP analog (DBcAMP), alone or in combination with phosphodiesterase inhibitors, IBMX, or the phosphodiesterase inhibitor, rolipram and IBMX, on cell reprogramming was also tested. Both DBcAMP and IBMX were used at 50 μM in the combination treatment.

MEFs from OG mice [3] = assay: Screen for chemical substitutes of Oct4 in OG-MEFs infected with Sox2, Klf4 and c-Myc; conditions: OG-MEFs with viral expression of Sox2, Klf4 and c-Myc
Experimental: To identify chemical substitutes of Oct4, MEFs from OG mice were plated at a density of 20,000 cells per well of a 12-well plate and infected with lentiviruses encoding Sox2, Klf4 and c-Myc. After infection, the medium was replaced with LIF-free ESC culture medium. Individual chemicals from small-molecule libraries were added to each well. The medium and chemicals were changed every 4 days. Chemical treatments were continued for 14-20 days or until GFP-positive colonies appeared. Primary hits were selected for further confirmation and optimization.
Small molecules that enable reprogramming in the absence of Oct4 were searched using Oct4 promoter-driven green fluorescent protein (GFP) expression (OG) mouse embryonic fibroblasts (MEFs), with viral expression of Sox2, Klf4, and c-Myc.

[4] = tested on: concentration ratio of SAH to SAM; assay: SAH and SAM quantification by HPLC
Experimental: as §1
Next, the role of DZNep, which was added in the late phase of chemical reprogramming was investigated. […] As an SAH hydrolase inhibitor, DZNep elevates the concentration ratio of SAH to S-adenosylmethionine (SAM) and may thereby repress the SAM-dependent cellular methylation process (FIG. 14A).

Oct4 promoter [5] = assay: DNA methylation at the Oct4 promoter during chemical reprogramming
From the text: Genomic DNA was modified by bisulfite treatment and purified using the MethylCode™ Bisulfite Conversion Kit (Invitrogen) according to the manufacturer's protocol. The amplified fragments were cloned into the pEASY-blunt Vector (Transgene). Ten randomly picked clones from each sample were sequenced.
(§2) The function of DZNep in inducing CiPSCs could not be replaced by down-regulating Ezh2 expression (FIGS. 14C-E). GFP+/ES-like colonies in the primary culture, unlike other colonies, express high mRNA level of Nanog and low level of Gata6, resembling ESCs and the established CiPSCs (data not shown). As master pluripotency genes, Oct4 and Sox2 may thereby activate other pluripotency-related genes and fulfill the chemical reprogramming process, along with the activation of Nanog and the silencing of Gata6, in the presence of 2i (Silva, et al., PLoS Biol. 6:e253 (2008), Theunissen, et al., Curr. Biol., 21:65-71 (2011). Boyer, et al., Cell, 122:947-956(2005); Chazaud, at al., Dev. Cell, 10:615-624 (2006)).

Oct4 promoter [6] = assay: Chromatin immunoprecipitation, H3K9 methylation at the Oct4 promoter
Experimental: ChIP was performed using the EZ-Magna ChIP A/G Kit (Millipore) according to the manufacturer's protocol. Anti-H3K27me3 (Abcam, ab6002), anti-H3K9me2 (Millipore, 07-441), anti-H3K4me3 (Abcam, ab8580) and anti-H3K9ac (Abcam, ab4441) antibodies were used. Following immunoprecipitation, DNA was analyzed by real-time PCR.
as §2

Cc1cccc(-c2n[nH]cc2-c2ccc3ncccc3n2)n1 [compound 616452, 2-(3-(6-Methylpyridin-2-yl)-1H-pyrazol-4-yl)-1,5-naphthyridine]
activation of endogenous expression of Sall4 and Sox2 [1]: essential in activating

bFGF: recombinant basic fibroblast growth factor
requirement in inducing CiPSCs (MEFs; FIG. 5G): necessary in inducing CiPSCs

CCCCC[C@H](O)/C=C/[C@H]1[C@H](O)CC(=O)[C@@H]1C/C=C\CCCC(=O)O [Prostaglandin E2]
hit facilitating late reprogramming (MEFs from OG mice [2]): identified in this screen

COc1ccc(C2CNC(=O)C2)cc1OC1CCCC1 (centres unmarked) [Rolipram]
hit facilitating late reprogramming (MEFs from OG mice [2]): identified in this screen

Nc1ncnc2c1ncn2[C@@H]1C=C(CO)[C@@H](O)[C@H]1O [NEPA, (−)Neplanocin A]
replacement of DZNep in CiPSC generation (MEFs): useful in replacing DZNep in reprogramming

CCCC(=O)[O-].[Na+] [sodium butyrate, Sodiumbutyane]
hit facilitating late reprogramming (MEFs from OG mice [2]): identified in this screen

C=C[C@@]1(C)CC(=O)[C@]2(O)[C@@]3(C)[C@@H](O)CCC(C)(C)[C@@H]3[C@H](O)[C@H](OC(C)=O)[C@@]2(C)O1 [Forskolin]
hit facilitating late reprogramming (MEFs from OG mice [2]): identified in this screen
cAMP level (cAMP level in MEF): significantly elevates
activation of endogenous expression of Sall4 and Sox2 [1]: essential in activating
reprogramming in the absence of Oct4 (chemical substitute for Oct4) (MEFs from OG mice [3]): identified as chemical “substitutes” for Oct4

C/C(=C\c1ccc(C(=O)O)cc1)c1ccc2c(c1)C(C)(C)CCC2(C)C [TTNPB, 4-[(E)-2-(5,6,7,8-Tetrahydro-5,5,8,8-tetramethyl-2-naphthalenyl)-1-propenyl]benzoic acid]
enhancement of chemical reprogramming efficiency, factor (MEFs; booster added to chemical reprogramming in MEFs): ≤ 40
chemical reprogramming frequency (MEFs; with booster TTNPB): up to 0.2%

Cc1[nH]c2ccc(O)cc2c1CCN [2-Me-5HT, 2-Methyl-5-hydroxytryptamine hydrocholoride]
reprogramming in the absence of Oct4 (chemical substitute for Oct4) (MEFs from OG mice [3]): identified as chemical “substitutes” for Oct4

Nc1ncn([C@@H]2O[C@H](CO)[C@@H](O)[C@H]2O)c(=O)n1 [5-Azacytidine]
hit facilitating late reprogramming (MEFs from OG mice [2]): identified in this screen

Nc1nccc2c1ncn2[C@@H]1C=C(CO)[C@@H](O)[C@H]1O [DZNep, 3-deazaneplanocin A]
hit facilitating late reprogramming (MEFs from OG mice [2]): identified in this screen
concentration ratio of SAH to S-adenosylmethionine (SAM) [4]: elevates
DNA methylation at the Oct4 promoter (Oct4 promoter [5]): significantly decreased
Oct4 expression ([1]; after addition of DZNep in chemical reprogramming): enhanced significantly
H3K9 methylation at the Oct4 promoter (Oct4 promoter [6]): significantly decreased

Cc1cnc(-c2cnc(NCCNc3ccc(C#N)cn3)nc2-c2ccc(Cl)cc2Cl)[nH]1 [CHIR99021, 6-[[2-[[4-(2,4-Dichlorophenyl)-5-(5-methyl-1H-imidazol-2-yl)-2-pyrimidinyl]amino]ethyl]amino]-3-pyridinecarbonitrile]
activation of endogenous expression of Sall4 and Sox2 [1]: essential in activating

NC(=O)c1ccc(-c2nc(-c3ccc4c(c3)OCCO4)c(-c3ccccn3)[nH]2)cc1 [D4476]
reprogramming in the absence of Oct4 (chemical substitute for Oct4) (MEFs from OG mice [3]): identified as chemical “substitutes” for Oct4

Nc1ncnc2c1ncn2C(C=O)OC(C=O)CO (centres unmarked) [ADOX, Adenosine periodate oxidized]
replacement of DZNep in CiPSC generation (MEFs): useful in replacing DZNep in reprogramming

Nc1nccc2c1ncn2C1OC(CO)C(O)C1O (centres unmarked) [DZA, 3-Deamadenoxine]
replacement of DZNep in CiPSC generation (MEFs): useful in replacing DZNep in reprogramming
